Measured values: US9993462B2, “Hydantoin derivative-containing pharmaceutical composition” (Chugai Seiyaku Kabushiki Kaisha, priority 2014, dated 2018)

What was measured:
ovariectomized rats = experiment: Bone mineral density after six weeks of repeated administration to ovariectomized rats; type: in vivo, rat; settings: once a day for six weeks, Compound 7 30 mg/kg oral
Procedure: Female Crl:CD(SD) rats obtained from Charles River Japan, Inc. were acclimated for one week or longer under standard laboratory conditions of 20° C. to 26° C. and 35% to 75% humidity, and then used in experiments. The rats had free access to tap water and a standard rodent diet (CE-2) (Clea Japan Inc.) containing 1.1% calcium, 1.0% phosphoric acid, and 250 IU/100 g vitamin D3.
Twelve-week old rats were subjected to removal of both ovaries by surgery (OVX) or to sham surgery (Sham). After the body weight was determined in the fourth week after surgery, the rats were divided into groups so that the average body weight of each group of six rats would be even. From the subsequent day after group division, each rat was subjected to repeated administration once a day for six weeks. The solvent for oral administration (vehicle) and the solvent for subcutaneous administration (PC buffer) were respectively administered orally and subcutaneously to rats of the Sham-Control group. Vehicle and PC buffer were orally and subcutaneously administered to rats of the OVX-Control group, respectively. To rats of OVX-Compound 7, the above-mentioned Compound 7 dissolved in the vehicle was orally administered at a dose of 30 mg/kg, and PC buffer was administered subcutaneously. To rats of the OVX-hPTH(1-34) group, the vehicle was orally administered, and hPTH(1-34) dissolved in PC buffer was subcutaneously administered at a dose of 0.9 nmol/kg.
The level of AUC (area under the curve for blood concentration vs. time) was the same as when 20 μg of Forteo®, a therapeutic agent clinically used for osteoporosis, is administered to humans when the administration dose for rats was set to 0.9 nmol/kg. The administration doses were 5 mL/kg for oral administration and 1 mL/kg for subcutaneous administration in all groups. The vehicle used was a composition prepared from 10% dimethyl sulfoxide (Wako Pure Chemical Industries, Ltd.), 10% Kolliphor EL (Sigma-Aldrich Japan), and 10% hydroxypropyl-β-cyclodextrin (Nihon Shokuhin Kako Co., Ltd), whose pH was adjusted to 10 using glycine (Wako Pure Chemical Industries, Ltd.) and sodium hydroxide (Wako Pure Chemical Industries, Ltd.). The PC buffer used was a composition prepared from 25 mmol/L phosphate-citrate buffer, 100 mmol/L NaCl, and 0.05% Tween80, adjusted to pH 5.0. […] The bone mineral densities of the lumbar spine and femur were determined using a dual X-ray bone mineral scanner (DCS-600EX, Aloka). The lumbar spine bone mineral density was determined by measuring the second to fourth lumbar vertebrae; and the femur bone mineral density was determined by vertically dividing the femur into ten parts, and measuring the three parts at the distal end of the knees. […]

[1] = system: human articular chondrocytes; experiment: Proteoglycan synthesis by human articular chondrocytes (35S-sulfate incorporation); type: cell-based; settings: cultured for 13 days
Procedure: After purchase of cryopreserved human articular chondrocytes (Lot 2867, Cell Applications Inc.), the cells were thawed in a 37° C. water bath, 15 mL of Basal Medium supplemented with 10% Growth Supplement (Growth Medium, Cell Applications Inc.) was placed in a T75 culture flask (CORNING, Corning Japan K. K.) to culture the cells, and exchanged the next day with 15 mL of Growth Medium; and the cells were cultured for three days. Growth Medium was then removed, and HBSS (Cell Applications Inc.) was used to wash the chondrocyte layer. With addition of 1 mL of trypsin/EDTA solution (Cell Applications Inc.), this was left to stand at room temperature for approximately five minutes, and chondrocytes were detached from the flask. With 10 mL of Neutralization solution (Cell Applications Inc.) added, Bulker-Turk hemocytometer was used to determine the cell count, and the cells were then transferred to a 15-mL test tube for centrifugation (1,200 rpm for five minutes, Tomy Seiko Co., Ltd.) to produce a chondrocyte pellet. The supernatant was discarded, and the cells were placed in a 1.2% sodium alginate solution (25 mmol/L HEPES/150 mmol/L sodium chloride solution, pH7.0) at 2×10^6 cells/mL. This was drawn into a 1-mL syringe (Terumo Corporation) equipped with a 22G injection needle, five drops were added to each well of a 24-well plate (Corning Japan K.K.) containing 2 mL of 102 mmol/L aqueous CaCl2 solution, and this was left to stand for five minutes to form beads. Subsequently, this was washed three times with a 150 mmol/L sodium chloride solution and incubated for one day in Growth Medium, and the medium was exchanged with Basal Medium supplemented with 1% Growth supplement (Cell Applications Inc.). In this procedure, the following factors were added to the medium, and the cells were cultured for 13 days with three times of medium exchange performed per week.
On day 12 of culturing, ^35S-labeled sulfuric acid (PerkinElmer Japan Co., Ltd.) was added at 370 kBq/well, and the medium was collected 24 hours later into a test tube and stored at 4° C. To the alginate gel, a 55 mmol/L sodium citrate solution (Nacalai Tesque, Inc.; 1 mL/well) was added, and this was incubated at 37° C. for ten minutes for solation. This was collected into a microtube (Eppendorf AG) and then centrifuged (1,200 rpm, five minutes) to produce a chondrocyte pellet. […] The glass filter was transferred to a liquid scintillation counter vial, 5 mL of scintillator (Hionic-Fluor, PerkinElmer Japan Co., Ltd.) was added and radioactivity was measured on a liquid scintillation counter (TRI-CARB, PerkinElmer Japan Co., Ltd.).
The remaining 0.1 mL of the digested solution was used for DNA quantification. […]

For Cc1cc(N2C(=O)NC(=O)C2(C)C)cc(C)c1CCS(=O)(=O)N1CCC2(CC1)N=C(c1ccc(OC(F)(F)F)cc1)NC2=O [Compound 7, 1-(3,5-dimethyl-4-(2-((4-oxo-2-(4-(trifluoromethoxy)phenyl)-1,3,8-triazaspiro[4.5]deca-1-en-8-yl)sulfonyl)ethyl)phenyl)-5,5-dimethylimidazolidine-2,4-dione], the “lumbar spine bone mineral density with respect to the OVX-Control group (in words)” value (ovariectomized rats) was “increasing trend”, the “percentage of increase in femur bone mineral density with respect to the OVX-Control group” value (ovariectomized rats; hPTH(1-34) 0.9 nmol/kg subcutaneous) was 12% and the “radioactivity (proteoglycan synthesis, cpm/μg DNA) relative to the vehicle control” value ([1]; 10^−5 mol/L) was 10 fold. The “radioactivity (proteoglycan synthesis, cpm/μg DNA) relative to the vehicle control” value ([1]; 10^−6 mol/L) was 3 fold.
